What all share (assay type): cell-based
The test system of one assay is lactic flora. The experiment in a line: Spoilage analysis of cooked emulsified sausage: lactic flora. The following applies: cooked emulsified sausage during storage. As to the method: (§1) A part was inoculated on surface with Listeria monocytogenes for the challenge test and the other part was kept safe for shelf life microbiological study as well as organoleptic and physical characterization. Cooked emulsified sausages were then stored in vacuum packaging.
(§2) Microbiological analysis was performed according to current standard EC regulation 2073/2005, at d0 after packaging, several days during the storage (from D4 to D7 or D14 according to the studies).
(§3) For cooked emulsified sausage, 14 days of shelf-life with 7 days of storage at 4° C. and 7 days at 8° C., to simulate a break in the cold chain (standardized method NF V01-003).
(§4) Group of microorganisms counts performed are listed below: • Total plate count (NF EN ISO 4833-1), • Lactic acid bacteria (NF ISO 15214) both mesophilic and psychotrophic • Enterobacteriaceace (ISO 21528-2), • Pseudomonas sp. (EN ISO 13720), • Brochothrix thermosphacta • Anaerobic enumeration of sulfito-reducing bacteria (NF V08-061), • Challenge test Listeria monocytogenes (NF-EN ISO 11290-2). • Challenge test Salmonella (NF-EN ISO 6579-1).

Assay [1] deals with total flora (total plate count). The experiment in a line: Spoilage analysis of cooked emulsified sausage: total plate count. The following applies: cooked emulsified sausage during storage. As to the method:
as §1, §2, §3, §4

The subject of another assay is Listeria monocytogenes. The following applies: fresh ground sausage, d8.

As for lactate, the “Growth of lactic flora” value in the assay with lactic flora was “normal growth”. In assay [1], the “Growth of total flora” value is “normal growth”. Further, in the assay with Listeria monocytogenes, the “Δ log cfu/g of Listeria growth versus untreated control” value is −0.9 log cfu/g.
